Data on one cell line can be found in the supplement of paper PMC10307832.

Holding throughout (test): relative viability (nuclei count vs DMSO), 5 days (fraction); higher = more cells survive
Compound in the test “GSK-J4 + Luminespib”: CCOC(=O)CCNc1cc(N2CCc3ccccc3CC2)nc(-c2ccccn2)n1 [GSK-J4] + CCNC(=O)c1noc(-c2cc(C(C)C)c(O)cc2O)c1-c1ccc(CN2CCOCC2)cc1 [Luminespib] (partner 0.01 µM)
Put shortly:
(§1)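 One day after seeding in 1536-well plates, lung cancer cell lines were dosed by pin tool. Dosing was either single-drug or a fixed anchor-drug dose plus five library-drug doses (not always all listed) in √10 steps. After 5 days, nuclei were stained in one fix-and-stain step and counted on 4× images, and relative viability is the nuclei count of treated wells over that of vehicle wells, given as the median of duplicate plates.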

Compound in the test “AZ3146 + Palbociclib”: CN1CCC(CC1)OC2=CC(=C(C=C2)NC3=NC=C4C(=N3)N(C(=O)N4C)C5CCCC5)OC [AZ3146] + CC(=O)c1c(C)c2cnc(Nc3ccc(N4CCNCC4)cn3)nc2n(C2CCCC2)c1=O [Palbociclib] (partner 0.5 µM)
In outline: as §1

Compound in the test “AZ3146 + Phenformin”: CN1CCC(CC1)OC2=CC(=C(C=C2)NC3=NC=C4C(=N3)N(C(=O)N4C)C5CCCC5)OC [AZ3146] + N=C(N)NC(=N)NCCc1ccccc1 [Phenformin] (partner 250 µM)
Put shortly:
as §1

Compound in the test “AZ3146 + Olaparib”: CN1CCC(CC1)OC2=CC(=C(C=C2)NC3=NC=C4C(=N3)N(C(=O)N4C)C5CCCC5)OC [AZ3146] + O=C(c1cc(Cc2n[nH]c(=O)c3ccccc23)ccc1F)N1CCN(C(=O)C2CC2)CC1 [Olaparib] (partner 8 µM)
In outline: as §1

Regarding UMC-11, the relative viability with GSK-J4 + Luminespib (first compound 0.5 µM) is 0.996; in the test with GSK-J4 + Luminespib (first compound 5 µM), 1.03; with GSK-J4 + Luminespib (first compound 15.81 µM), 0.971; in the test with GSK-J4 + Luminespib (first compound 50 µM) it was 0.259; with AZ3146 + Palbociclib (first compound 0.08 µM), 0.267; in the test with AZ3146 + Palbociclib (first compound 0.253 µM), 0.342. In addition, the relative viability with AZ3146 + Palbociclib (first compound 0.8 µM) worked out at 0.335; in the test with AZ3146 + Palbociclib (first compound 2.53 µM), 0.303; with AZ3146 + Palbociclib (first compound 8 µM), 0.306; with AZ3146 + Phenformin (first compound 0.08 µM), 0.299; in the test with AZ3146 + Phenformin (first compound 0.253 µM) it was 0.311; with AZ3146 + Phenformin (first compound 0.8 µM) it was 0.345. For the same cell line, the relative viability stood at 0.317 with AZ3146 + Phenformin (first compound 2.53 µM); 0.263 in the test with AZ3146 + Phenformin (first compound 8 µM); 0.396 with AZ3146 + Olaparib (first compound 0.08 µM); 0.405 with AZ3146 + Olaparib (first compound 0.253 µM); 0.36 in the test with AZ3146 + Olaparib (first compound 0.8 µM); 0.326 in the test with AZ3146 + Olaparib (first compound 2.53 µM). Further, the relative viability with AZ3146 + Olaparib (first compound 8 µM) was 0.279.
